# Results reported in publication PMC9848259 (Journal of Enzyme Inhibition and Medicinal Chemistry, 2023).
# Like-named read-outs stand apart in the source and are kept apart here.
# Key:
# LogP assay (RP-HPLC) = assay type: physicochemical; conditions: pH 11 mobile phases, read-out: logP Experimental
# Protocol: Methanol (POCH) was used as an organic modifier. Demineralised water was purified in our faculty. The methanol and water solution were set at pH 11 using 30 mM Triethylamine (TEA) (Sigma Aldrich). Ten isocratic mobile phases were used in the calibration and assay. The first mobile phase contained 50% methanol solution with 30 mM TEA and 50% water solution with 30 mM TEA. Each subsequent mobile phase contained 5% more methanol solution: the final mobile phase consisted of […] solution mix. The method required uncharged substances to be used during analysis.
# These substances were selected on the basis of their structural similarity to the test compounds. The stock solutions contained about 1 mg/ml of calibration compounds or test compounds. The injection concentration was 100 µg/ml, and the injection volume was 7 µl.
# A Waters 600 HPLC system was used with a photodiode array detector (PDA). The detector was set at the respective optimum absorption wavelength for each compound. The system used an Xbridge C18 50 mm × 4.6 mm i.d., 3.5 µm, chromatographic column (Waters). Data acquisition and processing were performed on Waters Millennium software.
# The assay was performed according to Chao Liang et al. with modification. […]
# Test compound was eluted by all mobile phases. […] The logP value was read from the calibration curve. […]
# female mice, Balb/c = test: In vivo acute oral toxicity (OECD 423)
# Protocol: (§1) Compound 3e was administered by the oral route (by gavage) in one of four fixed doses (5, 50, 300, 2000 mg/kg) for a given stage of the study. The results allow to classify the compound according to the Globally Harmonised Classification System for Chemical Substances and Mixtures (GHS). In addition, the LD50 cut-off values was determined. According to the figure from the OECD 423 guidelines, a maximum of six test stages can be performed. Three animals (female mice, Balb/c) took part in each stage, and the number of stages depends on the mortality of the animals, which is the final test parameter. The research was carried out on the basis of the agreement of the Local Ethical Committee for animal testing in Łódź No. 56/115 ŁB/2018.
# (§2) After quarantine, handling, weighing and labelling, the compound 3e was given in a dose of 300 mg/kg (300 mg/kg is a dose used in the absence of information on the toxicity of the test substance. If 2–3 animals die after using this dose, compound will be given at a lower dose − 50 mg/kg. Last dose 5 mg/kg is used if after a dose of 50 mg/kg also 2–3 animals die. If no death occurs, or death of one animal, the compound is again administered to the stomach in the same dose 300 mg/kg, and […], a dose of 2000 mg/kg of body weight is used). The presence of a substance-dependent mortality of animals exposed at one stage determines the performance of the next stage of the study. After each dose, animals are observed for 14 days. […].
# [1] = In vivo acute oral toxicity (OECD 423); set-up: species or system mice; conditions: female, Balb/c, mouse, in vivo, OECD 423, read-out: LD50 cut-off
# Protocol: as §1, §2
# [2] = pKa assay (spectrophotometric); assay type: physicochemical; conditions: potassium phosphate buffer series with methanol, 23 °C
# Protocol: Potassium dihydrogen phosphate, potassium hydroxide and methanol (POCH) were used to prepare the buffer solution, as described previously. […]. The pH was measured in 23 °C by using a Mettler Toledo FiveEasy pH metre with a LE438 Lab pH electrode (Mettler Toledo). Our tested compound solution was 5 µM solution in methanol: water (1:1) mix.
# Spectrophotometric measurement was performed in a 96-well plate using a Synergy H1 microplate reader (BioTek) with Gen5 software (BioTek). The full assay consisted of 35 UV spectrum measurements, one for each work buffer solution. For the assay, 180 μL sequent work buffer and 20 μL tested compound solution were added to each of 35 wells. For the blank, 200 μL sequent work buffer alone was added to each of 35 wells. The measurement was performed at 23 °C. The spectra were recorded from 280 nm to 380 nm in 1 nm steps. Concentrations were calculated based on the 332/343 nm and 343/332 nm ratio as described previously. The results were compared with computer calculations of pKa value obtained using chemicalize.com online software (ChemAxon 2018) and ACD/Percepta version 14.0.0 (Advanced Chemistry Development, Inc., Metropolitan Toronto, Canada).
# SH-SY5Y cells = test: Neuroprotection against rotenone/oligomycin A, pre-incubation, MTT test; assay type: cell-based, human; conditions: Rotenone/Oligomycin A 30/10 µM
# [3] = target: T1, AChE (from the electric eel) (Electrophorus electricus, UniProt O42275); test: biochemical
# T1 construct: purchased Sigma Aldrich
# Protocol: The capacity of the novel cyclopentaquinoline hybrids to inhibit AChE (from the electric eel) and BuChE (from equine serum) were determined by the modified colorimetric Ellman’s method[38]^,[39]. Both enzymes, DTNB – Ellman’s reagent (5,5′-dithiobis-(2-nitrobenzoic acid)), acetyltiocholine iodide (ATCI) were obtained from Sigma Aldrich. AChE and BuChE samples in phosphate buffer (PBS) pH 8.0 were incubated in 96-well plates in the presence of the substrate (ATCI), 76 µl of DTNB and the tested compound at various concentration at room temperature for 10 min (AChE) or eight minutes (BuChE).
# Aβ(1–42) aggregation = Aβ(1–42) aggregation (Homo sapiens, UniProt P05067); test: In vitro β-amyloid assay, Thioflavin T fluorescence; assay type: biochemical; conditions: ThT
# DNA = DNA damage; conditions: any tested concentration
# Aβ42 = target: T2, Aβ42 (Homo sapiens, UniProt P05067); test: In cellulo β-amyloid assay, Th-S fluorescence in E. coli over-expressing Aβ42; assay type: cell-based, Escherichia coli; conditions: read-out: anti-amyloid (inhibition) capacity for Aβ42
# T2 construct: expressed in transfected cells; host or cells: Escherichia coli BL21 (DE3), pET vector
# T2 sequence (P05067 672-713): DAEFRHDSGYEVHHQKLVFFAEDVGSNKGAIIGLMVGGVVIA
# Protocol: Inhibition assay in Escherichia coli cells over-expressing amyloid proteins. […] Escherichia coli competent cells BL21 (DE3) were transformed with the required pET vectors carrying the DNA sequence of Aβ42 peptide. Because of the addition of the initiation codon ATG in front of genes, the over-expressed Aβ42 contains an additional methionine residue at their N terminus. For overnight culture preparation, a colony of BL21 (DE3) bearing the plasmid to be expressed was inoculated in 10 ml of M9 minimal medium containing 50 μg/ml of kanamycin at 37 °C. […] The bacterial culture was then grown at 37 °C, with orbital agitation of 250 rpm. When the cell density reached OD600nm–0.6, 980 μL of the culture were transferred into 1.5 ml conical tubes containing 10 μL of the compound to be tested dissolved in DMSO, and 10 μL of 100 mM isopropyl 1-thio-β-D-galactopyranoside (IPTG). The final concentration of the compound was set to 10 μM. The samples were grown overnight at 37 °C under agitation at 1400 rpm, using a Thermomixer (Eppendorf, Hamburg, Germany). […]
# The fluorescence normalisation was carried out considering as 100% the Th-S fluorescence of the bacterial cells expressing Aβ42 in the absence of drug, and 0% the Th-S fluorescence of the bacterial cells non-expressing Aβ42 (in absence of the protein production inductor, IPTG). […]
# Sequence of Aβ(1–42) aggregation (P05067 672-713 limits assumed): as the sequence (P05067 672-713) above
# T1 sequence (O42275 24-633): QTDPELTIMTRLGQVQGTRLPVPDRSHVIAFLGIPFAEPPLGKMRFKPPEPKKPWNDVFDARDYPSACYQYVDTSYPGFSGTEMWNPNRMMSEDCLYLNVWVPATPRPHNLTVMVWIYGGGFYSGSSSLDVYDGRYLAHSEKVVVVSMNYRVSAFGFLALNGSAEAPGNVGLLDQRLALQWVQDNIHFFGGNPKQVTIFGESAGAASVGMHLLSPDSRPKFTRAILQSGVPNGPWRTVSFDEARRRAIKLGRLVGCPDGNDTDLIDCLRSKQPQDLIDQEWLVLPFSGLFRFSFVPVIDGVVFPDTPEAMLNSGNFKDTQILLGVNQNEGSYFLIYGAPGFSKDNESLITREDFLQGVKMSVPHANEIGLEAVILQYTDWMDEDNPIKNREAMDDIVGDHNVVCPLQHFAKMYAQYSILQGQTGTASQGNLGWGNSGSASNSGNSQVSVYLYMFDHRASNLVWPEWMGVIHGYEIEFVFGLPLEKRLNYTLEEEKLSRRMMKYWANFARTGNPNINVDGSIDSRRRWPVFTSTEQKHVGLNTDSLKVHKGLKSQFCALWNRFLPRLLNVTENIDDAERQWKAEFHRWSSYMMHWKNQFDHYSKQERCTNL
compound,measurement,setting,value
O=C(NCCCCCCNc1c2c(nc3ccccc13)CCC2)c1cc(Cl)cc(Cl)c1 [Compound 3e],chromatographic logP,LogP assay (RP-HPLC),5.44
same,mortality,"female mice, Balb/c; 300 mg/kg, first and second stages, 3 female Balb/c mice per stage",did not cause any death
same,mortality,"female mice, Balb/c; 2000 mg/kg, stage one, 3 mice",no animal died
same,mortality,"female mice, Balb/c; 2000 mg/kg, stage two, 3 mice",two died
same,GHS classification,"female mice, Balb/c; OECD 423",Category 4 GHS
same,LD50 at 14 days,[1],1000 mg/kg
same,pKa,[2]; read-out: pKa1 Experimental,8.4
same,pKa,[2]; read-out: pKa2 Experimental,11.3
same,% neuroprotection,SH-SY5Y cells; compound 0.0001 µM,17.64%
same,% neuroprotection,SH-SY5Y cells; compound 0.001 µM,12.46%
same,% neuroprotection,SH-SY5Y cells; compound 0.01 µM,7.65%
same,% neuroprotection,SH-SY5Y cells; compound 0.1 µM,2.41%
same,Selectivity for AChE,[3]; IC50(BuChE)/IC50(AChE),0.89
same,IC50,[3]; means ± SD of three experiments,0.131 ± 0.016 µM
same,inhibition at 5 µM,Aβ(1–42) aggregation; 5 µM compound,55.7 ± 4.7%
same,inhibition at 10 µM,Aβ(1–42) aggregation; 10 µM compound,62.7 ± 5.3%
same,inhibition at 25 µM,Aβ(1–42) aggregation; 25 µM compound,76.5 ± 3.7%
same,inhibition at 50 µM,Aβ(1–42) aggregation; 50 µM compound,79.8 ± 2.9%
same,inhibition at 100 µM,Aβ(1–42) aggregation; 100 µM compound,82.6 ± 1.7%
same,DNA damage,DNA,did not induce DNA damage
same,inhibition at 10 µM,Aβ42,52.4%
